Values quoted from earlier work as cited in article PMC11643494, “Structure–Activity Relationship Studies in a Series of 2-Aryloxy-N-(pyrimidin-5-yl)acetamide Inhibitors of SLACK Potassium Channels” (Molecules, 2024).
Like-named read-outs stand apart in the source and are kept apart here.

Tests used:
SLACK mutant G288S = test system: SLACK mutant G288S; parameters: method as in PMID 33859800; settings: APC; read-out: IC50 versus SLACK mutant G288S; cited from earlier work
human WT SLACK = test system: human WT SLACK; parameters: method as in PMID 33859800; settings: APC; read-out: IC50 versus human WT SLACK; cited from earlier work
SLACK mutant F364L = test system: SLACK mutant F364L; parameters: method as in PMID 33859800; settings: APC; read-out: IC50 versus SLACK mutant F364L; cited from earlier work
Kcnt1^L/L mice = test system: Kcnt1^L/L mice; parameters: method as in PMID 33859800; settings: cited from earlier work
[1] = parameters: method as in PMID 33859800; settings: mice; cited from earlier work
hERG [2] = settings: Tl+-flux; cited from earlier work
[3] = test system: co-cultured cortical neurons and glial cells; parameters: method as in PMID 33143429; settings: cited from earlier work
WT SLACK [4] = settings: whole-cell patch clamp electrophysiology; read-out: IC50 versus WT SLACK; cited from earlier work
G288S SLACK [5] = test system: G288S SLACK; parameters: method as in PMID 38893312; settings: whole-cell APC; read-out: IC50 versus G288S SLACK; cited from earlier work
A934T SLACK [6] = settings: whole-cell APC; read-out: IC50 versus A934T SLACK; cited from earlier work
hERG [7] = test system: hERG; parameters: method as in PMID 38782404; settings: cited from earlier work
WT SLICK = test system: WT SLICK; parameters: method as in PMID 38782404; settings: read-out: IC50 versus WT SLICK; cited from earlier work
G288S SLACK [8] = test system: G288S SLACK; parameters: method as in PMID 38782404; settings: read-out: IC50 versus G288S SLACK; cited from earlier work
WT SLACK [9] = test system: WT SLACK; parameters: method as in PMID 38782404; settings: patch clamp; read-out: IC50 versus WT SLACK; cited from earlier work
KV7.2 = test system: KV7.2; parameters: method as in PMID 38782404; settings: cited from earlier work
A934T SLACK [10] = test system: A934T SLACK; parameters: method as in PMID 38782404; settings: read-out: IC50 versus A934T SLACK; cited from earlier work
[11] = parameters: method as in PMID 38782404; settings: human liver microsomes; cited from earlier work
[12] = parameters: method as in PMID 38782404; settings: cited from earlier work

## C[C@H](NC(=O)c1cc(C(F)(F)F)nn1C)c1nc(-c2ccnc(C(F)(F)F)c2)no1 [Compound 4]
SLACK mutant G288S
  IC50: 220 nM
Human WT SLACK
  IC50: […]
SLACK mutant F364L
  IC50: 1800 nM
Kcnt1^L/L mice
  anticonvulsant effects: anticonvulsant effects were observed
[1]
  bioavailability: complete bioavailability
  clearance: 2.0 mL/min/kg

## COc1ccc(Cl)cc1NC(=O)CN1CCN(S(=O)(=O)N2CCC(C)CC2)CC1 [Compound 6]
hERG [2]
  IC50: > 10000 nM
[3]
  frequency of calcium (Ca2+) oscillations, result in words: inhibiting the frequency of calcium (Ca^2+) oscillations
WT SLACK [4]
  IC50: 1700 nM

## CCCCN(Cc1ccc(F)cc1)c1nc2c(c(=O)n(Cc3cccc(OC)c3)c(=O)n2C)n1C [Compound 8]
G288S SLACK [5]
  IC50: 710 nM
A934T SLACK [6]
  IC50: 590 nM
WT SLACK [4]
  IC50: 700 nM

## O=S(=O)(Nc1ccc2c(c1)CCN2Cc1ccc(C(F)(F)F)cc1C(F)(F)F)C1CCCCC1 [Compound 9]
hERG [7]
  activity on hERG channels, result in words: no activity
WT SLICK
  IC50: 1300 nM
G288S SLACK [8]
  IC50: 300 nM
WT SLACK [9]
  IC50: 200 nM
KV7.2
  activity on KV7.2 channels, result in words: no activity
A934T SLACK [10]
  IC50: 280 nM
[11]
  metabolic stability (clearance), result in words: low clearance compound
[12]
  plasma protein binding, result in words: highly bound to plasma proteins
